Reference: patent US20060148804A1, “Pde4 inhibitors for the treatment of neoplasms of lymphoid cells” (priority 2003, published 2006)
Values belong to the compound of their own block, whether it stands above or below them.

Tests used:
[1] = test system: NB4 blasts; assay: ATRA induced granulocytic maturation and growth inhibition of NB4 blasts; format: cell-based; conditions: for PICLAMILAST dependent enhancement of the ATRA-dependent induction of NBT-R: added to PICLAMILAST and ATRA
Description: (§1) In NB4 cells, PICLAMILAST accelerates the process of morphological granulocytic maturation and enhances the ATRA-dependent induction of specific differentiation markers such as NBT-reductase (NBTR) as well as CD11b. PICLAMILAST not only enhances, but also accelerates the process of granulocytic maturation set in motion by ATRA in acute myelogenous leukemia cells, reducing the time necessary to expose cells to ATRA to obtain maximal differentiation. […] PICLAMILAST exerts differential effects on a number of transcriptional factors involved in the process of leukemic cell maturation triggered by ATRA. […] The PICLAMILAST dependent enhancement of the ATRA-dependent induction of NBT-R is suppressed by the cAMP antagonist, Rp-8Br-cAMP, and the specific PKA inhibitor H-89. […] This phenomenon is more evident when cells are treated with combinations of ATRA and the PDE4 inhibitor. […] This altogether could represent a clinically relevant finding as it may represent a useful strategy to increase the therapeutic index of ATRA by decreasing its local and systemic toxicity.

[2] = test system: HL-60 blasts; assay: ATRA induced granulocytic maturation and growth inhibition of HL-60 blasts; format: cell-based; conditions: together with ATRA
[3] = test system: U937 blasts; assay: ATRA induced granulocytic maturation and growth inhibition of U937 blasts; format: cell-based; conditions: together with ATRA
[4] = test system: NB4 cells; assay: Intracellular cAMP and cAMP-dependent protein kinase (PKA) amounts in NB4 cells; format: cell-based; conditions: versus basal conditions
Description: as §1

[5] = test system: retinoic acid receptor, RARalpha; assay: Ligand-dependent transcriptional activity and phosphorylation of RARalpha; format: cell-based
Description: as §1

[6] = test system: cEBPalpha; assay: Amounts of cEBPalpha in leukemic cell maturation triggered by ATRA; format: cell-based; conditions: in combination with the retinoid
Description: as §1

[7] = test system: STAT1; assay: Amounts and tyrosine phosphorylation of STAT1; format: cell-based; conditions: in combination with the retinoid
Description: as §1

[8] = test system: cEBPepsilon; assay: Upregulation of cEBPepsilon; format: cell-based; conditions: in combination with the retinoid
Description: as §1

[9] = test system: CREBP transcriptional factor; assay: Phosphorylation state of CREBP in NB4 cells; format: cell-based
Description: as §1

[10] = test system: NB4 cells; assay: Gene expression in NB4 / myeloid cells; format: cell-based
Description: as §1

[11] = test system: chronic lymphocytic leukemia (CLL) B-lymphocytes; conditions: in vitro; cited from earlier work

- ATRA-dependent induction of NBT-reductase (NBTR) ([1]; NB4 cells, with ATRA): enhances
- PKA-dependent phosphorylation of RARalpha [5]: activated
- ligand-dependent transcriptional activity of RARalpha ([5]; in combination with the retinoid): enhances
SMILES: COc1ccc(C(=O)Nc2c(Cl)cncc2Cl)cc1OC1CCCC1 [PICLAMILAST, N-(3,5-dichloropyrid-4-yl)-3-cyclopentyloxy-4-methoxybenzamide]
- growth inhibitory and cyto-differentiating activities of all trans retinoic acid (ATRA) ([1]; NB4 blasts, together with ATRA): potentiates
- process of morphological granulocytic maturation ([1]; NB4 cells): accelerates
- ATRA-dependent induction of CD11b ([1]; NB4 cells, with ATRA): enhances
- time necessary to expose cells to ATRA to obtain maximal differentiation ([1]; acute myelogenous leukemia cells): reducing
- growth inhibitory effect of the retinoid ([1]; acute myelogenous leukemia cells, with ATRA): increases the growth inhibitory effect of the retinoid in an additive fashion
- growth inhibitory and cyto-differentiating activities of all trans retinoic acid (ATRA) [2]: potentiates
- growth inhibitory and cyto-differentiating activities of all trans retinoic acid (ATRA) [3]: potentiates
- amounts of cAMP-dependent protein kinase (PKA) [4]: significant increase
- amounts of intracellular cAMP [4]: significant increase
- amounts of cEBPalpha [6]: causes an increase
- amounts and activation state (tyrosine phosphorylation) of STAT1 [7]: causes an increase
- upregulation of cEBPepsilon [8]: no significant effect
- phosphorylation state of the cAMP dependent CREBP transcriptional factor [9]: down-regulatory action
- expression of cAMP- and CREBP-dependent genes, such as vinculin ([10]; NB4 cells): does not modulate
- expression of numerous ATRA-dependent genes, including cathepsin D and syaloadhesin ([10]; with ATRA): enhancing action

SMILES: Cn1c(=O)c2[nH]cnc2n(C)c1=O [Theophylline]
- apoptosis in CLL B-lymphocytes [11]: induce apoptosis

SMILES: O=S(=O)(NCCNC/C=C/c1ccc(Br)cc1)c1cccc2cnccc12 [H-89]
- PICLAMILAST dependent enhancement of the ATRA-dependent induction of NBT-R [1]: suppressed
- ATRA-dependent genes whose expression is super-induced by the PDE4 inhibitor ([10]; added to PICLAMILAST and ATRA): does not have the same effect on all

SMILES: CC1=C(/C=C/C(C)=C/C=C/C(C)=C/C(=O)O)C(C)(C)CCC1 [ATRA, all trans retinoic acid]
- amounts of cAMP-dependent protein kinase (PKA) [4]: Neither basal nor PICLAMILAST-induced levels of cAMP and PKA are modulated
- amounts of intracellular cAMP [4]: Neither basal nor PICLAMILAST-induced levels of cAMP and PKA are modulated

SMILES: Nc1ncnc2c1nc(Br)n2C1OC2COP(O)(=S)OC2C1O (stereo not drawn) [Rp-8Br-cAMP]
- PICLAMILAST dependent enhancement of the ATRA-dependent induction of NBT-R [1]: suppressed
